Results from paper PMC9126943, “ADAMTS4-specific MR probe to assess aortic aneurysms in vivo using synthetic peptide libraries” (Nature Communications, 2022).
“Also recorded” adds a separate entry of the source. Where a SMILES comes first, the peptide text is derived from it. Bridges are numbered along the chain shown (N, C = ends). The star is where a group is joined. Cy5(nonsulfonated) = CN1C(=CC=CC=CC2=[N+](CCCCCC(=O)*)c3ccccc3C2(C)C)C(C)(C)c2ccccc21

Biological target: T1, ADAMTS5 (Homo sapiens, UniProt Q9UNA0)
T1 construct: His; purchased BioTeZ Berlin-Buch GmbH 30 400 502
T1 sequence (Q9UNA0 262-930): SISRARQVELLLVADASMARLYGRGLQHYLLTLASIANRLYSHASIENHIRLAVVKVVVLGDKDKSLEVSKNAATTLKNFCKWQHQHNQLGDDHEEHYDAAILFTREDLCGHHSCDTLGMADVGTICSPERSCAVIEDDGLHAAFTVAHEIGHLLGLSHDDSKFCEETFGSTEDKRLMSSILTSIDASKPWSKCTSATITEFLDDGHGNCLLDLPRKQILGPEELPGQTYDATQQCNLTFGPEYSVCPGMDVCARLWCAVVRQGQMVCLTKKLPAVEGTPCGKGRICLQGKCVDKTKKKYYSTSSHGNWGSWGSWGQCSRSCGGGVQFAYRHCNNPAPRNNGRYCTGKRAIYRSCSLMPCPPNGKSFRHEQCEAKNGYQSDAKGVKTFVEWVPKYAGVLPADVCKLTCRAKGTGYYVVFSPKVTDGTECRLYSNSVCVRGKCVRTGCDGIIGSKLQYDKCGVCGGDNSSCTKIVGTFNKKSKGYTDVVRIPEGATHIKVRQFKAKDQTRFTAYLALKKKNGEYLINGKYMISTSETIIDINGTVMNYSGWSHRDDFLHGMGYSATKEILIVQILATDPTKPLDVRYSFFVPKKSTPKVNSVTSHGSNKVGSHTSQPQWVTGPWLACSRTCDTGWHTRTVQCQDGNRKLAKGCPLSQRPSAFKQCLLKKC
Experiment: MST instrument, ligand-dependent fluorescence change, Cy5-labeled peptide vs ADAMTS5
Format: binding
Details: Cy5-labeled peptide 3 nM, ADAMTS5 starting concentration 2.46 µM, n = 3
Experimental: Microscale thermophoresis (MST) was performed on a Monolith Pico (NanoTemper, Munich, Germany). The Cy5-labeled peptides were diluted into the MST buffer (150 mM NaCl, 50 mM TRIS-HCl, 5 mM CaCl2, and Tween-20) to reach a dilution of 6 nM. ADAMTS4, ADAMTS5, and ADAMTS1 were directly used with the supplied concentration. For ADAMTS4, the starting concentration was 4.96 µM, while for ADAMTS1 it was 4.88 µM and for ADAMTS5 it was 2.46 µM. Since we saw a loss of binding after centrifugation, the use of protein concentrators were inappropriate. 20 µl of the protein solutions were transferred into a PCR tube. 10 µl of this first vial was transferred into a second vial and mixed by pipetting with 10 µl of the MST buffer. […] The capillaries were transferred into the Monolith tray and measured with 10% excitation power on the pico-red excitation on high MST power at 25 °C. […] We detected a ligand-dependent fluorescence change for some of the systems. We checked for ADAMTS4 and the ADAMTS4-specific-Cy5-labeled probe via a saturation test for specifying the ligand-dependent fluorescence change. […] The samples were heated at 95 °C for 5 min and measured in the MST. The fluorescence difference between the concentrations was afterward at the same level. Each measurement was repeated three times independently and the binding constant was calculated by merging all three measurements. […]

## C[N+]1=C(C=CC=CC=C2N(CCCCCC(=O)NCCCC[C@H](NC(=O)CNC(=O)CNC(=O)[C@H](CO)NC(=O)CNC(=O)CNC(=O)[C@H](CO)NC(=O)[C@@H]3CSSC[C@H](N)C(=O)N[C@@H](CO)C(=O)N[C@@H](CCCNC(=N)N)C(=O)N[C@@H](CCCNC(=N)N)C(=O)NCC(=O)N3)C(=O)NCC(N)=O)c3ccccc3C2(C)C)C(C)(C)c2ccccc21 [Cy5-labeled probe] (H-CSRRGCSGGSGGK(Cy5(nonsulfonated))G-NH2; disulfide 1-6; N-terminus and C-terminus assumed)
  binding to ADAMTS5, in words: determination of the binding constant is not possible; also recorded: plateau was not reached; also recorded: a ligand dependent fluorescence change occurs
